The target in test [1] is T1, Cysteinyl leukotriene receptor 1 (Homo sapiens, UniProt Q9Y271). Also: in other assays of this panel Not Active means under 50% inhibition at 10 µM.
T1 sequence (Q9Y271 whole entry): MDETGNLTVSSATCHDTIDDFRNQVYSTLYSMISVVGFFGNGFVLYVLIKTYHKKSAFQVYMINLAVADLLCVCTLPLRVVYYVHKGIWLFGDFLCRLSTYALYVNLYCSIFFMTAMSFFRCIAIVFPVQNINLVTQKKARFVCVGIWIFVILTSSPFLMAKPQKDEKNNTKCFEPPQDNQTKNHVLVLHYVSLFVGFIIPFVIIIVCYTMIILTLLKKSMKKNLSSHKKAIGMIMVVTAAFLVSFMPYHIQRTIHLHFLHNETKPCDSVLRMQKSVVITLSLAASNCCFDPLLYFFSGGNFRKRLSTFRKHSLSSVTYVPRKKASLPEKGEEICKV
Type of test: cell membranes, Membrane. The following applies: cho-k1.

Test [2] is described as follows: DRUGMATRIX: ATPase, Na+/K+ enzyme inhibition (substrate: ATP). Type of test: tissue-based, Sus scrofa, Heart. The conditions noted are these: Not Active = under 50% inhibition at 10 µM.
The nature of test [3]: DRUGMATRIX: Calcium Channel Type L, Phenylalkylamine radioligand binding (ligand: [3H] (-)-Desmethoxyverapamil (D-888)). Type of test: cell membranes, Rattus norvegicus, Wistar, Brain, Membrane. The following applies: Not Active = under 50% inhibition at 10 µM.
Test [4] concerns the target Delta-type opioid receptor (Homo sapiens, UniProt P41143). Type of test: cell membranes, HEK293, Membrane. The conditions noted are these: hek293. Also: in other assays of this panel Not Active means under 50% inhibition at 10 µM.
The target of another test is T2, Calcitonin receptor (Homo sapiens, UniProt P30988). Also: in other assays of this panel Not Active means under 50% inhibition at 10 µM.
T2 sequence (P30988 whole entry): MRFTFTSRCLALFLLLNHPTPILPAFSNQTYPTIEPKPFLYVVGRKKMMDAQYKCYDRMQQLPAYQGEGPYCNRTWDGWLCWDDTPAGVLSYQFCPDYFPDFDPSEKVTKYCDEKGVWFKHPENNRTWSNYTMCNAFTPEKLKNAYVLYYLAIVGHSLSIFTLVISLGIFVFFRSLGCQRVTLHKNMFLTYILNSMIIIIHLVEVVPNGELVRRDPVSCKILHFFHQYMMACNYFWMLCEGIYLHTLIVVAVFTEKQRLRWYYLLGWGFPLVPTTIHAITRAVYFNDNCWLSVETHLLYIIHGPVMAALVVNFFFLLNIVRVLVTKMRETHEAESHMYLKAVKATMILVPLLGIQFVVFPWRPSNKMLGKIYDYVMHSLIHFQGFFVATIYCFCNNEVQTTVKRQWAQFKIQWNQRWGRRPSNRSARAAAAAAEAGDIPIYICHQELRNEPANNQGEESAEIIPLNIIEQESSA
Type of test: cell membranes, Membrane. The conditions noted are these: t47d.

Test [5] is described as follows: DRUGMATRIX: Sigma2 radioligand binding (ligand: [3H] Ifenprodil). It is filed as cell membranes, Rattus norvegicus, Wistar, Brain, Membrane. The conditions noted are these: Not Active = under 50% inhibition at 10 µM.
Test [6] concerns the target Prostaglandin G/H synthase 1 (Homo sapiens, UniProt P23219). Kind of test: biochemical. The following applies: platelet. It is filed as tissue-based, Platelet.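 Also: inhibition of COX-1 enzyme activity, with arachidonic acid supplied as substrate; in other assays of this panel Not Active means under 50% inhibition at 10 µM.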

Delta-type opioid receptor, sequence (P41143 whole entry): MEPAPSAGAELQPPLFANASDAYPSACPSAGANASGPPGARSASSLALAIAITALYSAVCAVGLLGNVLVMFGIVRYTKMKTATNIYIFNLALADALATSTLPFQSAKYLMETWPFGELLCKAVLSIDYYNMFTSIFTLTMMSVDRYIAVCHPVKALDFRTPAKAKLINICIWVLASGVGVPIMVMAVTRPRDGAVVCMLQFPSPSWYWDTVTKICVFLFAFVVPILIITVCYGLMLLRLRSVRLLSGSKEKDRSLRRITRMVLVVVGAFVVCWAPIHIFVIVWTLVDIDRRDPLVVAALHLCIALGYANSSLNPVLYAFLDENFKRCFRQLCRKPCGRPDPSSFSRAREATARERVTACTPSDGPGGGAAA
Prostaglandin G/H synthase 1, sequence (P23219 whole entry): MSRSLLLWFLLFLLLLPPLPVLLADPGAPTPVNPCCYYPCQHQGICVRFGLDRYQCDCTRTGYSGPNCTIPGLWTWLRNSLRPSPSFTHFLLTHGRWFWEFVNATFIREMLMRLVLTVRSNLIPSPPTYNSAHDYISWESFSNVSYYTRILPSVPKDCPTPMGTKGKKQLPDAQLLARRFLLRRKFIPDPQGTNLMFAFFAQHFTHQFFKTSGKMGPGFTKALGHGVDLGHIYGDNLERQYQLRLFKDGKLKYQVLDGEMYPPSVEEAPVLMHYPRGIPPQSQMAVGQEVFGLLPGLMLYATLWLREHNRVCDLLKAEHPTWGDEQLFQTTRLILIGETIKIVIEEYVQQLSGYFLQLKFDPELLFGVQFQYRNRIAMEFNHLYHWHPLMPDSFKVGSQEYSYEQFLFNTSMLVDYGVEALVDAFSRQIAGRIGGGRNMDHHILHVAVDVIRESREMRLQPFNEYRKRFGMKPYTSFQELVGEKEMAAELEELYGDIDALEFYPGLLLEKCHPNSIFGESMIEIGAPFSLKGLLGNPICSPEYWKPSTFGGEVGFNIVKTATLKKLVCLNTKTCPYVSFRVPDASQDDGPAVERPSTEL

Consider `C=C(C)[C@H]1Cc2c(ccc3c2O[C@@H]2COc4cc(OC)c(OC)cc4[C@@H]2C3=O)O1` [ROTENONE], for which the IC50 entry (in test [1]; in test [2]; in test [3]; in test [4]; on Calcitonin receptor; in test [5]) was “Not Active” in each case. Besides, the IC50 entry in test [6] is “Not Active”. For the same compound, the Ki result in test [2], in test [3] and in test [5] was “Not Active” each time.
As to `C#CCN(C)[C@H](C)Cc1ccccc1` [SELEGILINE], the IC50 entry (in test [1]; in test [2]; in test [3]; in test [4]; at Calcitonin receptor; in test [5]) was “Not Active” each time. For the same compound, in test [6], the IC50 result is “Not Active”. For the same compound, the Ki result in test [2], in test [3] and in test [5] was “Not Active” in each case.
As for `CO[C@H]1C[C@@H]2CC[C@@H](C)[C@@](O)(O2)C(=O)C(=O)N2CCCC[C@H]2C(=O)O[C@H]([C@H](C)C[C@@H]2CC[C@@H](O)[C@H](OC)C2)CC(=O)[C@H](C)/C=C(\C)[C@@H](O)[C@@H](OC)C(=O)[C@H](C)C[C@H](C)/C=C/C=C/C=C/1C` [SIROLIMUS], the IC50 entry (in test [1]; in test [2]; in test [3]; in test [4]; on Calcitonin receptor; in test [5]) was “Not Active” in each case. Moreover, the IC50 entry in test [6] was “Not Active”. Moreover, the Ki result in test [2], in test [3] and in test [5] was “Not Active” in each case.
In the case of `CN[C@@H]1[C@H](O)[C@H](NC)[C@H]2O[C@@]3(O)C(=O)C[C@@H](C)O[C@H]3O[C@@H]2[C@H]1O` [SPECTINOMYCIN], the IC50 entry (in test [1]; in test [2]; in test [3]; in test [4]; on Calcitonin receptor; in test [5]) was “Not Active” throughout. The IC50 result in test [6] is given as “Not Active”. Further, the Ki entry in test [2], in test [3] and in test [5] was “Not Active” each time.
`Nc1ccc(S(=O)(=O)Nc2ncccn2)cc1` [SULFADIAZINE]: the IC50 entry (in test [1]; in test [2]; in test [3]; in test [4]; on Calcitonin receptor; in test [5]) was “Not Active” each time. For the same compound, in test [6], the IC50 entry was “Not Active”. Besides, the Ki result in test [2], in test [3] and in test [5] was “Not Active” throughout.
Regarding `COc1ncnc(NS(=O)(=O)c2ccc(N)cc2)c1OC` [SULFADOXINE], the IC50 result (in test [1]; in test [2]; in test [3]; in test [4]; at Calcitonin receptor; in test [5]) was “Not Active” each time. In addition, in test [6], the IC50 result was “Not Active”. In addition, the Ki result in test [2], in test [3] and in test [5] was “Not Active” each time.
Turning to `Nc1ccc(S(=O)(=O)Nc2nccs2)cc1` [SULFATHIAZOLE], the IC50 result (in test [1]; in test [2]; in test [3]; in test [4]; at Calcitonin receptor; in test [5]) was “Not Active” in each case. Besides, the IC50 entry in test [6] is “Not Active”. The Ki result in test [2], in test [3] and in test [5] was “Not Active” throughout.
For `C[C@]12CC[C@H]3[C@@H](CCC4=CC(=O)CC[C@@]43C)[C@@H]1CC[C@@H]2O` [TESTOSTERONE], the IC50 result (in test [1]; in test [2]; in test [3]; in test [4]; on Calcitonin receptor; in test [5]) was “Not Active” each time. Also, the IC50 entry in test [6] was “Not Active”. The Ki result in test [2], in test [3] and in test [5] was “Not Active” in each case.
`CC(C)(C)NC[C@H](O)COc1nsnc1N1CCOCC1` [TIMOLOL]: the IC50 result (in test [1]; in test [2]; in test [3]; in test [4]; at Calcitonin receptor; in test [5]) was “Not Active” in each case. The IC50 entry in test [6] is recorded as “Not Active”. For the same compound, the Ki result in test [2], in test [3] and in test [5] was “Not Active” in each case.
`CCS(=O)(=O)CCn1c([N+](=O)[O-])cnc1C` [TINIDAZOLE]: the IC50 entry (in test [1]; in test [2]; in test [3]; in test [4]; at Calcitonin receptor; in test [5]) was “Not Active” throughout. The IC50 result in test [6] is “Not Active”. The Ki entry in test [2], in test [3] and in test [5] was “Not Active” in each case.
For `C[C@@H]1C[C@H]2[C@@H]3CCC4=CC(=O)C=C[C@]4(C)C3=CC[C@]2(C)[C@H]1C(=O)CN1CCN(c2cc(N3CCCC3)nc(N3CCCC3)n2)CC1` [TIRILAZAD], the IC50 result is “Not Active” in test [1]; “Not Active” in test [2]; 2500 nM in test [3] (read-out: IC50); “Not Active” in test [4]; “Not Active” at Calcitonin receptor; “Not Active” in test [5]. In test [6], the IC50 result is reported as “Not Active”. Further, the Ki entry is “Not Active” in test [2], 2430 nM in test [3] (read-out: Ki) and “Not Active” in test [5].
`NC[C@H]1O[C@H](O[C@H]2[C@H](O)[C@@H](O[C@H]3O[C@H](CO)[C@@H](O)[C@H](N)[C@H]3O)[C@H](N)C[C@@H]2N)[C@H](N)C[C@@H]1O` [TOBRAMYCIN]: the IC50 entry (in test [1]; in test [2]; in test [3]; in test [4]; at Calcitonin receptor; in test [5]) was “Not Active” throughout. For the same compound, the IC50 entry in test [6] is given as “Not Active”. The Ki result in test [2], in test [3] and in test [5] was “Not Active” throughout.
For the compound `O=C(O)C(Cl)(Cl)Cl` [TRICHLOROACETIC ACID], the IC50 result (in test [1]; in test [2]; in test [3]; in test [4]; at Calcitonin receptor; in test [5]) was “Not Active” in each case. Besides, in test [6], the IC50 entry was “Not Active”. Besides, the Ki result in test [2], in test [3] and in test [5] was “Not Active” each time.
Take `COc1ccc(CN2CCNCC2)c(OC)c1OC` [TRIMETAZIDINE]: the IC50 entry (in test [1]; in test [2]; in test [3]; in test [4]; on Calcitonin receptor; in test [5]) was “Not Active” throughout. Moreover, the IC50 entry in test [6] is on record as “Not Active”. In addition, the Ki entry in test [2], in test [3] and in test [5] was “Not Active” in each case.
Consider `CC(=O)O[C@H]1C[C@@H]2CC[C@@H]3[C@H](CC[C@@]4(C)[C@H]3C[C@H]([N+]3(C)CCCCC3)[C@@H]4OC(C)=O)[C@@]2(C)C[C@@H]1N1CCCCC1.[Br-]` [VECURONIUM BROMIDE], for which the IC50 result (in test [1]; in test [2]; in test [3]; in test [4]; on Calcitonin receptor; in test [5]) was “Not Active” throughout. Besides, in test [6], the IC50 result is “Not Active”. Moreover, the Ki entry in test [2], in test [3] and in test [5] was “Not Active” in each case.
For the compound `Cc1cn([C@H]2C[C@H](N=[N+]=[N-])[C@@H](CO)O2)c(=O)[nH]c1=O` [ZIDOVUDINE], the IC50 entry (in test [1]; in test [2]; in test [3]; in test [4]; at Calcitonin receptor; in test [5]) was “Not Active” in each case. Moreover, in test [6], the IC50 entry is “Not Active”. Also, the Ki entry in test [2], in test [3] and in test [5] was “Not Active” each time.
